# Legend:
# Assay in all cases: relative viability (nuclei count vs DMSO), 5 days (fraction); higher = more cells survive
# 201T = tested on: 201T
# Method in brief: (§1)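 Relative viability equals treated-well nuclei counts divided by vehicle-well nuclei counts. Counts came from 4× images of lung cancer cell lines grown in 1536-well plates for 5 days after pin-tool dosing on the day after seeding. Dosing used one drug alone or a fixed anchor-drug dose plus five library-drug doses (not always all listed) in √10 steps, and values are medians of duplicate plates.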
# A-427 = tested on: A-427
# Method in brief: as §1
# BEN = tested on: BEN
# Method in brief: as §1
# EKVX = tested on: EKVX
# Method in brief: as §1
# HARA = tested on: HARA
# Method in brief: as §1
# HCC-15 = tested on: HCC-15
# Method in brief: as §1
# HCC-44 = tested on: HCC-44
# Method in brief: as §1
# HCC-827 = tested on: HCC-827
# Method in brief: as §1
# LK-2 = tested on: LK-2
# Method in brief: as §1
# NCI-H1437 = tested on: NCI-H1437
# Method in brief: as §1
# NCI-H1666 = tested on: NCI-H1666
# Method in brief: as §1
# NCI-H1792 = tested on: NCI-H1792
# Method in brief: as §1
# NCI-H1975 = tested on: NCI-H1975
# Method in brief: as §1
# NCI-H23 = tested on: NCI-H23
# Method in brief: as §1
# NCI-H358 = tested on: NCI-H358
# Method in brief: as §1
# NCI-H441 = tested on: NCI-H441
# Method in brief: as §1
# NCI-H596 = tested on: NCI-H596
# Method in brief: as §1
# NCI-H650 = tested on: NCI-H650
# Method in brief: as §1
# NCI-H838 = tested on: NCI-H838
# Method in brief: as §1
# SW 900 = tested on: SW 900
# Method in brief: as §1
smiles,measurement,setting,value
O=C(O)c1ccc(-c2c[nH]c3ncc(-c4ccccc4)cc23)cc1C1CCCC1 + NC(=O)Nc1cc(-c2cccc(F)c2)sc1C(=O)N[C@H]1CCCNC1 [AZD7762] (partner 0.2 µM),relative viability,201T; first compound 0.04 µM,0.599
same,relative viability,201T; first compound 0.1265 µM,0.654
same,relative viability,201T; first compound 0.4 µM,0.664
same,relative viability,201T; first compound 1.265 µM,0.663
same,relative viability,A-427; first compound 0.04 µM,0.826
same,relative viability,A-427; first compound 0.1265 µM,0.911
same,relative viability,A-427; first compound 0.4 µM,0.893
same,relative viability,A-427; first compound 1.265 µM,0.726
same,relative viability,BEN; first compound 0.04 µM,0.529
same,relative viability,BEN; first compound 0.1265 µM,0.775
same,relative viability,BEN; first compound 0.4 µM,0.698
same,relative viability,BEN; first compound 1.265 µM,0.771
same,relative viability,EKVX; first compound 0.04 µM,0.679
same,relative viability,EKVX; first compound 0.1265 µM,0.818
same,relative viability,EKVX; first compound 0.4 µM,0.888
same,relative viability,EKVX; first compound 1.265 µM,0.593
same,relative viability,HARA; first compound 0.04 µM,0.4
same,relative viability,HARA; first compound 0.1265 µM,0.596
same,relative viability,HARA; first compound 0.4 µM,0.385
same,relative viability,HARA; first compound 1.265 µM,0.554
same,relative viability,HCC-15; first compound 0.04 µM,1.22
same,relative viability,HCC-15; first compound 0.1265 µM,1.45
same,relative viability,HCC-15; first compound 0.4 µM,1.42
same,relative viability,HCC-15; first compound 1.265 µM,1.03
same,relative viability,HCC-44; first compound 0.04 µM,1.07
same,relative viability,HCC-44; first compound 0.1265 µM,1.03
same,relative viability,HCC-44; first compound 0.4 µM,1.01
same,relative viability,HCC-44; first compound 1.265 µM,0.946
same,relative viability,HCC-827; first compound 0.04 µM,0.168
same,relative viability,HCC-827; first compound 0.1265 µM,0.191
same,relative viability,HCC-827; first compound 0.4 µM,0.242
same,relative viability,HCC-827; first compound 1.265 µM,0.203
same,relative viability,LK-2; first compound 0.04 µM,0.446
same,relative viability,LK-2; first compound 0.1265 µM,0.614
same,relative viability,LK-2; first compound 0.4 µM,0.373
same,relative viability,LK-2; first compound 1.265 µM,0.49
same,relative viability,NCI-H1437; first compound 0.04 µM,1.15
same,relative viability,NCI-H1437; first compound 0.1265 µM,1.21
same,relative viability,NCI-H1437; first compound 0.4 µM,1.15
same,relative viability,NCI-H1437; first compound 1.265 µM,0.934
same,relative viability,NCI-H1666; first compound 0.04 µM,0.798
same,relative viability,NCI-H1666; first compound 0.1265 µM,1
same,relative viability,NCI-H1666; first compound 0.4 µM,0.875
same,relative viability,NCI-H1666; first compound 1.265 µM,0.728
same,relative viability,NCI-H1792; first compound 0.04 µM,0.673
same,relative viability,NCI-H1792; first compound 0.1265 µM,0.959
same,relative viability,NCI-H1792; first compound 0.4 µM,0.94
same,relative viability,NCI-H1792; first compound 1.265 µM,0.634
same,relative viability,NCI-H1975; first compound 0.04 µM,0.738
same,relative viability,NCI-H1975; first compound 0.1265 µM,0.793
same,relative viability,NCI-H1975; first compound 0.4 µM,0.676
same,relative viability,NCI-H1975; first compound 1.265 µM,0.728
same,relative viability,NCI-H23; first compound 0.04 µM,0.218
same,relative viability,NCI-H23; first compound 0.1265 µM,0.297
same,relative viability,NCI-H23; first compound 0.4 µM,0.237
same,relative viability,NCI-H23; first compound 1.265 µM,0.328
same,relative viability,NCI-H358; first compound 0.04 µM,0.494
same,relative viability,NCI-H358; first compound 0.1265 µM,0.536
same,relative viability,NCI-H358; first compound 0.4 µM,0.456
same,relative viability,NCI-H358; first compound 1.265 µM,0.452
same,relative viability,NCI-H441; first compound 0.04 µM,1.01
same,relative viability,NCI-H441; first compound 0.1265 µM,1.23
same,relative viability,NCI-H441; first compound 0.4 µM,1.11
same,relative viability,NCI-H441; first compound 1.265 µM,1.14
same,relative viability,NCI-H596; first compound 0.04 µM,1.05
same,relative viability,NCI-H596; first compound 0.1265 µM,1.21
same,relative viability,NCI-H596; first compound 0.4 µM,1.08
same,relative viability,NCI-H596; first compound 1.265 µM,1.17
same,relative viability,NCI-H650; first compound 0.04 µM,1.03
same,relative viability,NCI-H650; first compound 0.1265 µM,1.11
same,relative viability,NCI-H650; first compound 0.4 µM,1.02
same,relative viability,NCI-H650; first compound 1.265 µM,0.947
same,relative viability,NCI-H838; first compound 0.04 µM,0.978
same,relative viability,NCI-H838; first compound 0.1265 µM,1.07
same,relative viability,NCI-H838; first compound 0.4 µM,0.992
same,relative viability,NCI-H838; first compound 1.265 µM,0.92
same,relative viability,SW 900; first compound 0.04 µM,0.635
same,relative viability,SW 900; first compound 0.1265 µM,0.648
same,relative viability,SW 900; first compound 0.4 µM,0.755
same,relative viability,SW 900; first compound 1.265 µM,0.598

# — the supplement of paper PMC10307832
